From the NIST ThermoML archive (doi:10.1016/j.fluid.2005.12.003)

Conditions: 101.33 kPa, Liquid

CCCCn1cc[n+](C)c1.F[P-](F)(F)(F)(F)F [1-butyl-3-methylimidazolium hexafluorophosphate]
Conditions	mass density [kg/m3]
283.13 K	1380.43
293.12 K	1372.15
293.3 K	1371.88
302.83 K	1363.87
303.3 K	1363.48
312.68 K	1355.45
313.17 K	1355.18
322.64 K	1347.23
323.23 K	1346.72
332.56 K	1338.7
333.66 K	1337.95
342.41 K	1330.79
343.27 K	1329.87
